In article PMC6308302, “Identification of Pharmacokinetic Markers for Guanxin Danshen Drop Pills in Rats by Combination of Pharmacokinetics, Systems Pharmacology, and Pharmacodynamic Assays” (Frontiers in Pharmacology, 2018):
Entries after “also recorded” stand apart in the source; their conditions may differ. Marks after values point to notes of the source that are not given here.

How the values were obtained:
[1] = Stability tests in rat plasma (QC samples, HPLC-MS); conditions: n=5
Description: Accuracy and precision were expressed by relative error (RE) and coefficient of variance (RSD), respectively.

Caco-2 cell monolayers = conditions: ref Lu et al., 2008, Liu et al., 2009, Hu et al., 2014, Bowles et al., 2017, cited from earlier work
[2] = Multiple component PK study in rat plasma after p.o. GDDP (HPLC-MS); conditions: for AUC(0-inf) / AUC(0-t) / MRT inf / MRT last / Tmax / Cmax / half-life: Sprague-Dawley, rat, plasma, po
[3] = Aqueous solubility test (vortexing in water); type: physicochemical; conditions: thermodynamic from solid; determined, water, 25 °C, 1 atm
Description: Aqueous solubility (S) test of the 17 ingredients was performed by vortexing 10 mg of each ingredient in […] water in a test tube at ambient temperature and 1 atm. After vortexing for 5 min, if the solution is clear, the tested object will be considered as soluble in water. In silico assessment of the physicochemical properties governing permeation and intestinal absorption was carried out for the 17 ingredients studied. Theory aqueous solubility (S) was calculated with ALOGPS 2.1 online software via the Virtual Computational Chemistry Laboratory service (Chemoinformatics Group, Neuherberg, Germany) (VCCLAB^1). The octanol–water partition coefficient (cLogP), the total hydrogen bond count (donors and acceptors), and topological polar surface area (TPSA) were determined using the Molinspiration Property Calculator (Molinspiration Cheminformatics, Bratislava, Slovak Republic^2). Lipinski’s rule of 5 was used to predict the permeability of the compound ([Lipinski et al., 2001]).

[4] = system: isoprenaline-induced MI in mice; test: In vivo anti-MI study: isoprenaline-induced myocardial injury (ECG, H&E histology)
[5] = 24h in auto-sampler vials, spiked 2 ng/mL
[6] = 24h in auto-sampler vials, spiked 400 ng/mL
[7] = 24h in auto-sampler vials, spiked 1600 ng/mL
[8] = Placing plasma for 6h at 4°C, spiked 2 ng/mL
[9] = Placing plasma for 6h at 4°C, spiked 400 ng/mL
[10] = Placing plasma for 6h at 4°C, spiked 1600 ng/mL
[11] = three freeze-thaw cycles, rat plasma, spiked 2 ng/mL
[12] = three freeze-thaw cycles, rat plasma, spiked 400 ng/mL
[13] = three freeze-thaw cycles, rat plasma, spiked 1600 ng/mL
[14] = Caco-2 cell monolayers, from literature

Compound: CC(C)=CCC[C@](C)(O[C@@H]1O[C@H](CO)[C@@H](O)[C@H](O)[C@H]1O)[C@H]1CC[C@]2(C)[C@@H]1[C@H](O)C[C@@H]1[C@@]3(C)CC[C@H](O)C(C)(C)[C@@H]3[C@@H](O[C@@H]3O[C@H](CO)[C@@H](O)[C@H](O)[C@H]3O[C@@H]3OC[C@@H](O)[C@H](O)[C@H]3O)C[C@]12C [R1, notoginsenoside R1]
- Stability: Measured [1, 5]: 1.89 ± 0.51 ng/mL
- Stability: RE [1, 5]: -5.63%
- Stability: Measured [1, 6]: 395.76 ± 7.32 ng/mL
- Stability: RE [1, 6]: -1.06%
- Stability: Measured [1, 7]: 1619.10 ± 82.22 ng/mL
- Stability: RE [1, 7]: 1.19%
- Stability: Measured [1, 8]: 1.75 ± 0.34 ng/mL
- Stability: RE [1, 8]: -12.56%
- Stability: Measured [1, 9]: 387.55 ± 18.40 ng/mL
- Stability: RE [1, 9]: -3.11%
- Stability: Measured [1, 10]: 1698.54 ± 105.94 ng/mL
- Stability: RE [1, 10]: 6.16%
- Stability: Measured [1, 11]: 2.15 ± 0.21 ng/mL
- Stability: RE [1, 11]: 7.54%
- Stability: Measured [1, 12]: 395.28 ± 15.09 ng/mL
- Stability: RE [1, 12]: -1.18%
- Stability: Measured [1, 13]: 1784.04 ± 71.20 ng/mL
- Stability: RE [1, 13]: 11.50%
- Papp(apical→basolateral) (Caco-2 cell monolayers; [14]): > 0.1^c ×10^-6 cm/s
- Papp(basolateral→apical) (Caco-2 cell monolayers; [14]): > 0.1^c ×10^-6 cm/s
- apparent permeability in Caco-2 cell monolayers (Caco-2 cell monolayers; previous results): > 10^-7 cm/s
- determination in rat plasma at the planned successive PK time points ([2]; GDDP 0.8 g/kg p.o., 5, 10, 15, 30, 45, 60, and 120 min, LOQ 1.0–1.4 ng/mL): could be determined
- detection in rat plasma ([2]; GDDP 0.8 g/kg p.o., at 5, 10, 15, 30, 45, or 60 min, LOD 0.5–0.7 ng/mL): could be detected
- AUC(0-inf) ([2]; 0.4 g/kg): 171 ± 92.6 ng·h/mL
- AUC(0-t) ([2]; 0.4 g/kg): 146 ± 58.9 ng·h/mL
- MRT inf ([2]; 0.4 g/kg): 78.6 ± 6.6 min
- MRT last ([2]; 0.4 g/kg): 66 ± 7.2 min
- Tmax ([2]; 0.4 g/kg): 30.6 ± 42 min
- Cmax ([2]; 0.4 g/kg, Cmax, rat plasma, GDDP 0.4 g/kg p.o. (Low dose group), n=3): 167 ± 48 ng/mL
- half-life ([2]; 0.4 g/kg, t1/2 β, rat plasma, GDDP 0.4 g/kg p.o. (Low dose group), n=3): 34.2 min
- AUC(0-inf) ([2]; 0.8 g/kg): 168 ± 119 ng·h/mL
- AUC(0-t) ([2]; 0.8 g/kg): 120 ± 117 ng·h/mL
- MRT inf ([2]; 0.8 g/kg): 115 ± 95.4 min
- MRT last ([2]; 0.8 g/kg): 53.4 ± 8.4 min
- Tmax ([2]; 0.8 g/kg): 45 min
- Cmax ([2]; 0.8 g/kg, Cmax (high / low plasma drug concentrations), rats, GDDP 0.4 and 0.8 g/kg p.o., classification): > 20 ng/mL
- Cmax ([2]; 0.8 g/kg, Cmax, rat plasma, GDDP 0.8 g/kg p.o. (High dose group), n=3): 259 ± 342 ng/mL
- half-life ([2]; 0.8 g/kg, t1/2 β (fast / slow elimination type), rats, GDDP 0.4 and 0.8 g/kg p.o., classification): < 120 min
- half-life ([2]; 0.8 g/kg, t1/2 β, rat plasma, GDDP 0.8 g/kg p.o. (High dose group), n=3): 27 min
- Cltot ([2]; rat plasma, GDDP 0.4 g/kg p.o. (Low dose group), n=3): 55.7 ± 30.2 mL/min/kg
- Cltot ([2]; rat plasma, GDDP 0.8 g/kg p.o. (High dose group), n=3): 181.5 ± 187.8 mL/min/kg
- solubility at 5 min [3]: > 10000 µg/mL
- Histopathology of heart tissue (H&E) ([4]; 40 mg/kg p.o. for 7 days, isoprenaline-induced MI, 40 mg/kg): remarkably severe histological damage with extensive myocardial lysis and architecture wrecking; also recorded: extremely severe histological damage with extensive myocardial lysis and architecture wrecking
- ECG (lead II) findings on the fifth day of the trial ([4]; 40 mg/kg p.o., isoprenaline 5 mg/kg on days 4 and 5): T waves reversed or decreased
